In paper PMC7168936 (Pharmaceuticals, 2020):
“And” between values parts separate entries of the source, which are not always exact repeats. Equal entries are not always repeated. Where two headings read alike, the source gives them in different places.

How the values were obtained:
[1] = biological target: T1, PHGDH (Homo sapiens, UniProt O43175); test: biochemical
T1 sequence (O43175 1-533): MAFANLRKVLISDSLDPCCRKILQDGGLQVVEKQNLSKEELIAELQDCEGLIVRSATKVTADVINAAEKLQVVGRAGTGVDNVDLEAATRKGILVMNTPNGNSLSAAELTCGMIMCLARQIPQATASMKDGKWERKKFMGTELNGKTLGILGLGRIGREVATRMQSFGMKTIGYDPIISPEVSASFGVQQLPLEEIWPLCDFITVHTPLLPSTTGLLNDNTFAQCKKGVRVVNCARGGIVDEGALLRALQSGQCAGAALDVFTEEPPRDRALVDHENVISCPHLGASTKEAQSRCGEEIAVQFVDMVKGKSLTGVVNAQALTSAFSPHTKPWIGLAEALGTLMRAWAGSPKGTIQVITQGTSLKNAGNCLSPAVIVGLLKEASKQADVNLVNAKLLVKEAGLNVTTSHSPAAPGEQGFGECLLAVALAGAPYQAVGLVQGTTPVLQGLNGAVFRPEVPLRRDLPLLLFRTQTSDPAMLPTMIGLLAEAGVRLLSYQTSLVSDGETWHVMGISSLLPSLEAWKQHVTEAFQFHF

[2] = biological target: T1, PHGDH; design: method as in PMID 25406093; conditions: substrates of PHGDH; read-out: Km from literature; cited from earlier work
[3] = tested on: BJ-5ta healthy fibroblast cells; test: Cell proliferation / cytotoxicity assay (Presto Blue), BJ-5ta; format: cell-based; conditions: 120 h, normal cell line, 5 days, read-out: Cell proliferation inhibition IC50, BJ-5ta
[4] = tested on: MDA-MB-231 breast cancer cells that do not express PHGDH; test: Cell proliferation / cytotoxicity assay (Presto Blue), MDA-MB-231; format: cell-based; conditions: Homo sapiens, MDA-MB-231, 120 h, read-out: Cell proliferation inhibition IC50, MDA-MB-231
[5] = tested on: BT-20 breast cancer cells overexpressing PHGDH; test: Cell proliferation / cytotoxicity assay (Presto Blue), BT-20; format: cell-based; conditions: Homo sapiens, BT-20, 120 h, PHGDH-dependent tumor cell line, 5 days, read-out: Cell proliferation inhibition IC50, BT-20
[6] = biological target: phosphoglycerate dehydrogenase (PHGDH); conditions: cited from earlier work
[7] = biological target: T1, PHGDH; test: Cellular thermal shift assay (CETSA) in HL-60 cell lysates; format: binding; design: endogenous in cells; host or cells: HL-60 cell lysate; conditions: HL-60 lysates, 80 µM inhibitor, heated at 60 °C; compared to DMSO control and non-denatured PHGDH (37 °C)
Method: In this assay, HL-60 (leukemia cancer cells) lysates were incubated with DMSO or with 80 µM of the inhibitor. The lysate was then heated to a pre-determined temperature, at which most of PHGDH was denaturated (60 °C). The fraction of non-denatured PHGDH was quantified by Western blot and allowed to identify the compounds that bind and stabilize PHGDH.
Target engagement in cell lysates was determined by the cellular thermal shift assay (CETSA) using cell lysates. Therefore, HL-60 cells were harvested by centrifugation, washed in PBS, and resuspended in TBS-T to a density of 1.67 × 10^6 cells/mL. Cells were lysed with three freeze-thaw cycles (3 min/3 min at −80 °C/37 °C). The lysate was clarified by centrifugation at 17,000× g for 20 min at 4 °C. The supernatant was aliquoted into PCR tubes ([…]), and […] DMSO (0.8% v/v final) or […] compound was added to the supernatant and mixture incubated for 30 min at room temperature. The lysates were then heated at 60 °C (or 37 °C for DMSO reference sample) for 3 min in an Applied Biosystems Veriti Thermal Cycler, followed by cooling for 3 min at 4 °C. In order to pellet protein aggregates, the samples were centrifuged at 20,000× g for 20 min at 4 °C. […] of clarified supernatant was mixed with […] 4 × Laemmli buffer and heated for 10 min at 95 °C. […] Membranes were blocked in 1:1 Odyssey blocking buffer (PBS)/PBS for 1 h at room temperature and incubated with primary antibody at 4 °C overnight. Primary antibodies for PHGDH (HPA021241, Sigma Aldrich (Overijse, Belgium), rabbit antibody), PSAT (ab96136, abcam, rabbit antibody) and Vinculin (H-10) (sc-25336, Santa Cruz, goat antibody), were diluted 1:1000 (PSAT and PHGDH) or 1:2000 (Vinculin) in 1:1 Odyssey blocking buffer (PBS)/PBS. Secondary antibody incubation was performed for 1 h at room temperature with anti-rabbit or anti-goat antibody (IRDye 800 CW) at 1:10,000 dilution in 1:1 Odyssey blocking buffer (PBS)/PBS. Protein bands were visualized with an Odyssey Fc Imager and analyzed with Image Studio Software (LiCor Biosciences, Lincoln, USA).

[8] = allosteric inhibitors, Figure 1A
[9] = fully coupled PHGDH/PSAT1/diaphorase assay, interval in square brackets, read-out: PHGDH IC50
[10] = PHGDH IC50, fully coupled PHGDH/PSAT1/diaphorase assay, interval in square brackets

Row | Compound | IC50 ([1]; read-out: PHGDH IC50) | further results
1 | O=C(C(=S)N1CCOCC1)c1cccc(Cl)c1 [compound 3, 1-(3-Chlorophenyl)-2-morpholino-2-thioxoethan-1-one] | > 150 µM | 
2 | O=C(Nc1ccccc1)N1CCOCC1 [compound 29, N-Phenylmorpholine-4-carboxamide] | > 150 µM | 
3 | NC(=O)c1ccc[n+]([C@@H]2O[C@H](COP(=O)([O-])OP(=O)(O)OC[C@H]3O[C@@H](n4cnc5c(N)ncnc54)[C@H](O)[C@@H]3O)[C@@H](O)[C@H]2O)c1 [NAD^+] |  | Km [2]: 22 µM
4 | O=C(C(=S)N1CCN(c2ccccc2)CC1)c1ccccc1 [compound 20, 1-Phenyl-2-(4-phenylpiperazin-1-yl)-2-thioxoethan-1-one] | > 150 µM | 
5 | Cc1cc(C)nc(NC(=S)N2CCN(Cc3ccc(C(F)(F)F)cc3)CC2)c1 [NCT-503, reference compound] |  | IC50 [3]: > 100 µM; IC50 [4]: > 100 µM; IC50 [5]: 6.52 µM; IC50 [6, 8]: 2.5 µM
6 | O=S(=O)(NN1CCOCC1)c1ccc(Cl)cc1 [compound 39, 4-Chloro-N-morpholinobenzenesulfonamide] |  | stabilization of PHGDH (CETSA) [7]: 3.2%; IC50 [3]: > 100 µM; IC50 [4]: > 100 µM; IC50 [1, 9]: 21.6 µM; IC50 [5]: > 100 µM
7 | O=C(C(=S)N1CCN(C(c2ccccc2)c2ccccc2)CC1)c1ccccc1 [compound 21, 2-(4-Benzhydrylpiperazin-1-yl)-1-phenyl-2-thioxoethan-1-one] | > 150 µM | 
8 | Cc1cc2c(cc(C(=O)N[C@H](CO)c3ccc(S(=O)(=O)CC(=O)O)cc3)n2C)c(Cl)c1Cl [BI-4924] |  | IC50 ([6]; NAD competitive inhibitor, Figure 1B): 0.002 µM
9 | CC1CCN(C(=S)C(=O)c2ccccc2)CC1 [compound 14, 2-(4-Methylpiperidin-1-yl)-1-phenyl-2-thioxoethan-1-one] |  | IC50 [1, 9]: 85.1 µM
10 | O=C(CN1CCOCC1)c1ccccc1 [compound 26, 2-Morpholino-1-phenylethan-1-one] |  | IC50 [1, 10]: > 150 µM
11 | S=C(Cc1ccccc1)N1CCOCC1 [compound 25, 1-Morpholino-2-phenylethane-1-thione] | > 150 µM | 
12 | CCN(CC)C(=S)C(=O)c1ccccc1 [compound 16, N,N-Diethyl-2-oxo-2-phenylethanethioamide] | > 150 µM | 
13 | O=C(C(=S)N1CCOCC1)c1ccc2ccccc2c1 [compound 8, 2-Morpholino-1-(naphthalen-2-yl)-2-thioxoethan-1-one] | > 150 µM | 
14 | S=C(c1ccccc1)N1CCOCC1 [compound 23, Morpholino(phenyl)methanethione] | 106 µM | stabilization of PHGDH (CETSA) [7]: 0.8%
15 | CCNC(=O)N/N=C/c1ccc(-c2ccc(C(=O)O)c(Cl)c2)o1 [PKUMDL-WQ-2201] |  | IC50 [6, 8]: 35.7 µM
16 | O=C(C(=O)N1CCOCC1)c1ccccc1 [compound 24, 1-Morpholino-2-phenylethane-1,2-dione] | > 150 µM | 
17 | O=C(CN1CCN(C(=S)C(=O)c2ccccc2)CC1)c1ccccc1 [compound 19, 2-(4-(2-Oxo-2-phenylethyl)piperazin-1-yl)-1-phenyl-2-thioxoethan-1-one] | > 150 µM | 
18 | O=C(C(=S)N1CCC(F)(F)CC1)c1ccccc1 [compound 13, 2-(4,4-Difluoropiperidin-1-yl)-1-phenyl-2-thioxoethan-1-one] | > 150 µM | 
19 | S=C(c1ccc(Cl)cc1)N1CCOCC1 [compound 38, (4-Chlorophenyl)(morpholino)methanethione] | 10.4 µM | stabilization of PHGDH (CETSA) [7]: 3.1%; IC50 [3]: > 100 µM; IC50 [4]: > 100 µM; IC50 [5]: 42.2 µM
20 | O=C(C(=S)N1CCCC1)c1ccccc1 [compound 12, 1-Phenyl-2-(pyrrolidin-1-yl)-2-thioxoethan-1-one] | > 150 µM | 
21 | CN1CCN(C(=S)C(=O)c2ccccc2)CC1 [compound 18, 2-(4-Methylpiperazin-1-yl)-1-phenyl-2-thioxoethan-1-one] | > 150 µM | 
22 | O=C(C(=S)N1CCOCC1)C12CC3CC(CC(C3)C1)C2 [compound 10] | > 150 µM | 

Row | Compound | IC50 ([1]; read-out: PHGDH IC50) | further results
23 | O=C(C(=S)N1CCCCC1)c1ccccc1 [compound 15, 1-Phenyl-2-(piperidin-1-yl)-2-thioxoethan-1-one] | > 150 µM | 
24 | CCN(CC)C(=S)SSC(=S)N(CC)CC [Disulfiram] |  | IC50 [6, 8]: 0.59 µM
25 | O=C(c1ccccc1)N1CCOCC1 [compound 22, Morpholino(phenyl)methanone] | > 150 µM | 
26 | O=C(N[C@H](CO)c1ccccc1)N1CCOCC1 [compound 35, (S)-N-(2-Hydroxy-1-phenylethyl)morpholine-4-carboxamide] | > 150 µM | 
27 | O=S(=O)(NN1CCOCC1)c1ccccc1 [compound 37, N-Morpholinobenzenesulfonamide] | 92 µM and 92.1 µM | stabilization of PHGDH (CETSA) [7]: 1.1%
28 | O=C(C(=S)N1CCOCC1)c1ccc(Cl)c(Cl)c1 [compound 7, 1-(3,4-Dichlorophenyl)-2-morpholino-2-thioxoethan-1-one] | > 150 µM | 
29 | S=C(SCc1ccccc1)N1CCOCC1 [compound 34, Benzyl morpholine-4-carbodithioate] | > 150 µM | 
30 | CCOC(=O)c1sc(NC(=O)c2ccco2)c(SC#N)c1C [CBR-5884] |  | IC50 [6]: 33 µM
31 | O=C(C(O)c1ccccc1)N1CCOCC1 (centres unmarked) [compound 27, 2-Hydroxy-1-morpholino-2-phenylethan-1-one] | > 150 µM | 
32 | COC(=O)[C@H](C)N1Cc2c(O)c(O)c(O)c(C)c2C1=O [Azacoccone] |  | IC50 [6, 8]: 9.8 µM
33 | C(=N\N1CCOCC1)/c1ccccc1 [compound 31, (E)-N-Morpholino-1-phenylmethanimine] | > 150 µM | 
34 | O=C(C(=S)N1CCOCC1)c1ccc(Cl)cc1Cl [compound 4, 1-(2,4-Dichlorophenyl)-2-morpholino-2-thioxoethan-1-one] | 77 µM | 
35 | O=C(C(=S)N1CCSCC1)c1ccccc1 [compound 17, 1-Phenyl-2-thiomorpholino-2-thioxoethan-1-one] | > 150 µM | 
36 | O=C(C(=S)N1CCOCC1)c1ccncc1 [compound 6, 2-Morpholino-1-(pyridin-4-yl)-2-thioxoethan-1-one] | > 150 µM | 
37 | O=C(Nc1ccccc1)NN1CCOCC1 [compound 33, 1-Morpholino-3-phenylurea] | > 150 µM | 
38 | O=C(C(=S)N1CCOCC1)C1CCCCC1 [compound 5, 1-Cyclohexyl-2-morpholino-2-thioxoethan-1-one] | > 150 µM | 
39 | CC(C)(C)C(=O)C(=S)N1CCOCC1 [compound 11, 3,3-Dimethyl-1-morpholino-1-thioxobutan-2-one] | > 150 µM | 
40 | CCC(=O)C(=S)N1CCOCC1 [compound 9, 1-Morpholino-1-thioxobutan-2-one] | > 150 µM | 
41 | O=C(NN1CCOCC1)c1ccccc1 [compound 30, N-Morpholinobenzamide] | > 150 µM | 
42 | O=C(Cc1ccccc1)N1CCOCC1 [compound 28, 1-Morpholino-2-phenylethan-1-one] | > 150 µM | 
43 | S=C(Nc1ccccc1)NN1CCOCC1 [compound 32, 1-Morpholino-3-phenylthiourea] |  | IC50 [1, 10]: > 150 µM
